Laboratory results from patent US7915256B2, “Triazolopyrazine compounds useful for the treatment of degenerative and inflammatory diseases” (Galapagos NV, priority 2006, dated 2011).
Where two headings read alike, the source gives them in different places. Each block holds one molecule with its values, some of them ahead of it.

Columns and labels:
[1] = molecular target: T1, MAPKAPK5 (Homo sapiens, UniProt Q8IW41); assay: MAPKAP-K5 assay (FlashPlate, 33P-ATP)
T1 sequence (Q8IW41 1-473): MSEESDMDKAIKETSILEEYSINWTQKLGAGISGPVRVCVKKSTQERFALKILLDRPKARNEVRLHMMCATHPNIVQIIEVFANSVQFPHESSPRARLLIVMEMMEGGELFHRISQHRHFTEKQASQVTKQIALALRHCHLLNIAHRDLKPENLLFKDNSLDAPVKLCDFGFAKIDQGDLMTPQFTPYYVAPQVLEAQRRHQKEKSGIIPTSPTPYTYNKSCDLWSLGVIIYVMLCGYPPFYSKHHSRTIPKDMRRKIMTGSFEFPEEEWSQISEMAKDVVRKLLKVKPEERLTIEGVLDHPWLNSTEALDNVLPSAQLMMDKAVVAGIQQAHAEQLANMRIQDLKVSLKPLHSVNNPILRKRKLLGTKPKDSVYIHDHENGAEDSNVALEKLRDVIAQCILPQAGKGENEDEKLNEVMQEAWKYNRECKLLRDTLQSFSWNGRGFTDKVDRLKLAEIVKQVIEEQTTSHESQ
Description: MAPKAP-K5 reactions are performed in FlashPlate format using 0.1 or 0.2 μCi 33P-ATP; 0.6 μM ATP; 1 mU MAPKAP-K5; 3 μM MAPKAP-K5 peptide substrate, incubated at room temperature for 30 minutes.
The MAPKAP-K5 kinase reaction is performed in a 384 well polypropylene plate (Matrix Technologies) and then transferred to a streptavidin-coated 384 well flashplate (Perkin-Elmer).
To wells containing 2 μL test compound or standard inhibitor, 13 μL Enzyme mix or diluent are added using a Hydra (Robbins Scientific).
Reactions are started by addition of 10 μL of [2,5×] substrate cocktail using a Multidrop (Thermo-Labsystems), to give final concentrations in the assay of:
Plates are incubated at room temperature for 30 minutes.
Reactions are terminated by the addition of 25 μL EDTA (50 mM) to each well using a Micro-fill (Biotek).
Reactions are transferred to a streptavidin-coated flashplate using a Zymark robotic system. Plates are incubated for 60 minutes at room temperature.
All wells are washed 3 times with 100 μl phosphate buffered saline using a Tecan plate washer.
Radioactivity is determined by scintillation counting of the flashplate (empty wells) on a Packard TopCount.
Enzyme Mix: • Enzyme • 50 mM Tris Hcl (pH 7.5) • 0.1 mM EGTA • 2 mM DTT • 1 mg/mL BSA
Reaction Buffer: • 50 mM Tris Hcl (pH 7.5) • 0.1 mM EGTA • 10 mM Magnesium acetate • 2 mM DTT

[2] = test system: TNFα release by human PBMCs; assay: Cytokine (TNFα) release by LPS stimulated human PBMCs, ELISA; format: cell-based; details: ELISA of supernatant
Description: For the assay PBMCs are seeded at 2.5E6 cells/mL in 160 μL in 96-well plates (Nunc). Serial dilution of the test compounds are made first in DMSO (Sigma) and then diluted 50-fold in M199 medium (Gibco) containing 1% heat-inactivated FBS. Compounds are further 1/10 diluted in the assay plates to obtain final DMSO concentration of 0.2%. Cells are preincubated with the compounds for 1 hr at 37° C., 5% CO2. Then, cells are stimulated with LPS (Escherichia coli serotype 026:B6, Cat. No. L2654, Sigma) that is added in a volume of 20 μL to a final concentration of 1 μg/mL and cells are further cultured for 24 hr. The plates are centrifuged and the supernatant is collected and stored at −80° C. until analysis of appropriate dilutions in ELISAs.
After 4 hr incubation at RT, blocking buffer is removed and plates are washed once with PBST (1×PBS with 0.05% Tween-20 (Sigma)). Then, 40 μL of sample is transferred to the ELISA plates and plates are incubated at 4° C. […] Readout is performed on the Luminoscan Ascent Luminometer (Labsystems) with an integration time of 100 msec delivering raw data (RLU: relative luminescence units). […] Where compounds are tested at 8 concentrations (1/3 serial dilution), EC50-values can be calculated by curve fitting of the means of the PIN data achieved for a compound at each test concentration.

[3] = test system: MMP1 expression by activated synovial fibroblasts (RASFs); assay: 'MMP assay': MMP1 ELISA on supernatant of complex trigger activated synovial fibroblasts; format: cell-based; details: Homo sapiens, Fibroblast, Table 4, 48 hrs
Description: A 384-well format ELISA for measurement of MMP1 is developed. Various primary antibodies are tested, as well as various ELISA protocols. […] The antibody is diluted in buffer 40 (1.21 g Tris base (Sigma), 0.58 g NaCl (Calbiochem) and 5 ml 10% NaN3 (Sigma) in 1 L milliQ water and adjusted to pH 8.5). After overnight incubation at 4° C., plates are washed with PBS (80 g NaCl, 2 g KCl (Sigma), 11.5 g Na2HPO4.7H2O and 2 g KH2PO4 in 10 L milliQ; pH 7.4) and blocked with 100 μL/well Casein buffer (2% Casein (VWR International) in PBS). Next day, casein buffer is removed from ELISA plates and replaced by 50 μL/well EC buffer (4 g casein, 2.13 g Na2HPO4 (Sigma), 2 g bovine albumin (Sigma), 0.69 g NaH2PO4.H2O (Sigma), 0.5 g CHAPS (Roche), 23.3 g NaCl, 4 ml 0.5 M EDTA pH 8 (Invitrogen), 5 ml 10% NaN3 in 1 L milliQ and adjusted to pH 7.0). 0.25 mM DTT (Sigma) is added to the thawed samples plates. After removal of the EC buffer, 20 μL of sample is transferred to the ELISA plates. After overnight incubation at 4° C. plates are washed twice with PBS and once with PBST (PBS with 0.05% Tween-20 (Sigma)) and incubated with 35 μL/well biotinylated anti-MMP1 antibody solution (R&D). This secondary antibody is diluted in buffer C (0.82 g NaH2PO4.H2O, 4.82 g Na2HPO4, 46.6 g NaCl, 20 g bovine albumin and 4 mL 0.5M EDTA pH 8 in 2 L milliQ and adjusted to pH 7.0) at a concentration of 5 μg/mL. After 2 h of incubation at RT, plates are washed as described above and incubated with 50 μL/well streptavidin-HRP conjugate (Biosource). Streptavidin-HRP conjugate is diluted in buffer C at a concentration of 0.25 μg/mL. After 45 min, plates are washed as described above and incubated for 5 min with 50 μL/well BM Chem ELISA Substrate (Roche). Readout is performed on the Luminoscan Ascent Luminometer (Labsystems) with an integration time of 200 msec or with an Envision reader (Perkin Elmer).
SFs are seeded at a density of 3000 cells/well in 96 well plates. 24 hrs after seeding, increasing concentrations of dexamethasone are added to the cells. […]

[4] = Table 1, 0.6 μM ATP, 30 minutes room temperature
[5] = read-out: MAPKAPK5 IC50, Table 1, 0.6 μM ATP, 30 minutes room temperature

Compound: NC(=O)c1ccc(-c2cnc(Nc3ccc(OCCN4CCOCC4)cc3)c3ncnn23)s1 [Compound 22, 5-(8-(4-(2-Morpholinoethoxy)phenylamino)-[1,2,4]triazolo[1,5-a]pyrazin-5-yl)thiophene-2-carboxamide]
IC50 [1, 5]: > 1000 nM

Compound: C[C@@H]1CN(c2ccc(Nc3ncc(-c4csc(C(N)=O)c4)n4ncnc34)cc2)[C@@H](C)CN1C [Compound 32]
EC50 ([2]; Homo sapiens, PBMC, 24 h, Table 5, LPS 1 μg/mL): 101 to 500 nM

Compound: NC(=O)c1cc(-c2cnc(Nc3ccc(N4CCN(CC5CC5)CC4)nc3)c3ncnn23)cs1 [Compound 54, 4-{8-[6-(4-[Cyclopropylmethyl]piperazin-1-yl)-pyridin-3-ylamino]-[1,2,4]triazolo[1,5-a]pyrazin-5-yl}thiophene-2-carboxylic acid amide]
EC50 ([2]; Table 5, LPS 1 μg/mL, 24 hr, read-out: PBMC EC50): > 1000 nM

Compound: O=C(NCc1ccc(O)cc1)c1cccc(Nc2ncc(-c3cn[nH]c3)n3ncnc23)c1 [Compound 131, N-(4-Hydroxybenzyl) 3-[5-(1H-pyrazol-4-yl)-[1,2,4]triazolo[1,5-a]pyrazin-8-ylamino]benzamide]
EC50 [3]: > 1000 nM

Compound: O=C(N[C@@H]1CCN(Cc2ccccc2)C1)c1ccc(Nc2ncc(-c3cn[nH]c3)n3ncnc23)cc1 [Compound 147]
IC50 [1]: 101 to 500 nM
EC50 [3]: > 1000 nM

Compound: O=C(N[C@H]1CCN(Cc2ccccc2)C1)c1ccc(Nc2ncc(-c3cn[nH]c3)n3ncnc23)cc1 [Compound 191]
EC50 [3]: > 1000 nM

Other lines, results leading:

MAPKAPK5 IC50 (nM) [1, 4]: =
Compound: NC(=O)c1c(F)cc(-c2cnc(Nc3ccc(N4CCOCC4)cc3)c3ncnn23)cc1F [Compound 14]

MAPKAPK5 IC50 (nM) [1, 4]: =
Compound: Clc1cc(Nc2ncc(-c3cn[nH]c3)n3ncnc23)ccc1N1CCOCC1 [Compound 18]

IC50 [1, 5]: 501 to 1000 nM
Compound: NC(=O)c1cc(-c2cnc(Nc3ccc(OCCN4CCOCC4)cc3)c3ncnn23)cs1 [Compound 21, 4-(8-(4-(2-Morpholinoethoxy)phenylamino)-[1,2,4]triazolo[1,5-a]pyrazin-5-yl)thiophene-2-carboxamide]

MAPKAPK5 IC50 (nM) [1, 4]: =
Compound: CC(C)N1CCN(c2ccc(Nc3ncc(-c4cc(F)c(C(N)=O)c(F)c4)n4ncnc34)cc2)CC1 [Compound 26]

IC50 [1]: 101 to 500 nM
Compound: CCN1CCCC1CNC(=O)c1ccc(Nc2ncc(-c3cn[nH]c3)n3ncnc23)cc1 (centres unmarked) [Compound 163]

IC50 [1]: 101 to 500 nM
Compound: CN(C)Cc1cc(Nc2ncc(-c3ccc4c(c3)CNC4=O)n3ncnc23)ccc1N1CCNCC1 [Compound 175]

IC50 [1]: 101 to 500 nM
Compound: CC(C)N1CCC(c2ccc(Nc3ncc(-c4cnc5c(c4)CNC5=O)n4ncnc34)cc2)CC1 [Compound 190]
